Laboratory results reported in patent US20070249639A1, “Use of 9H-Purine-2,6-Diamine Derivatives in the Treatment of Proliferative Diseases and Novel 9H-Purine-2,6-Diamine Derivatives” (priority 2004, published 2007).

Biological target: T1, human topoisomerase II α (Homo sapiens, UniProt P11388)
T1 construct: purchased Professor Neil Osheroff (Vanderbilt University, Nashville, Tenn., USA)
Experiment: Topoisomerase II ATPase assay (Malachite Green)
Assay type: biochemical
Details: for inhibition at 10 µM: Percent inhibition @10 μM, Malachite Green assay, read-out: TOPO II inh. (inhibition of the TOPO ATPase activity)
Experimental: The inhibition of topoisomerase II is measured as follows:
Purified human topoisomerase II α was purchased from Professor Neil Osheroff (Vanderbilt University—Nashville, Tenn., USA).
The pUC18 (Stratagene) plasmid was introduced into Escherichia coil XL-1 (Stratagene) and purified with the HiSpeed Plasmid Purification kit (Qiagen) according to the manufacturer instructions. The purity of the DNA preparations was evaluated spectrophotometrically (OD260/OD280 ratio) and by agarose gel.
Preparation of the Malachite Green Reagent:
Three volumes of 0.045% malachite green (Sigma, catalog no. M-9636) diluted in water are mixed for 20 min at room temperature with one volume of 4.2% ammonium molybdate (Axon Lab AG, catalog no. A-2246) diluted in 4 N HCl. After mixing, Triton X-100 (Merck, catalog no. 1.12298) is added to a final concentration of 0.01%. The solution is filtered at 0.2 μm and stored at room temperature in the dark.
ATP hydrolysis was monitored by measuring the production of inorganic phosphate released during the catalytic cycle of topoisomerase II α with acidic molybdate and malachite green (Lanzetta,et al., An improved assay for nanomole amounts of inorganic phosphate, Anal Biochem 1979;100:95-7). Briefly, human topoisomerase II α is pre-incubated at 37° C. for 10 min in 90 μl reaction buffer (10 mM Tris.HCl pH 7.9, 175 mM KCl, 1 mM EDTA, 2 mM DTT, 5 mM MgCl2, 2.5% glycerol) in the presence of the indicated amount of pUC18 and DMSO in F96 maxisorp Nunclmmuno plates (Nunc). The reaction is initiated by the addition of 10 μl ATP at the indicated concentrations and is carried out for 30 min at 37° C. under constant agitation. The reaction is stopped by the addition of 200 μl molybdate/malachite green solution and the absorbance is immediately measured at 630 nm. The OD630 value is measured in the absence of protein for each ATP concentration (background) is subtracted from the value obtained in the presence of enzyme. A standard curve with inorganic phosphate is used to determine the amount of inorganic phosphate produced during the reaction and to ensure that the measures are in the linear range of the assay. The kinetic parameters of the enzymes are determined from measurements (at least in duplicate) of the initial rates at different ATP concentrations. The data are analyzed with GraFit (Erithacus Software).
The compounds are tested at 10 μM of concentration to determine their inhibition potential given % of inhibition of the TOPO II ATPase activity.
For the determination of the IC50, the procedure is repeated for different concentrations of test compound selected to cover the range of 0% to 100% inhibition and the concentration at which 50% inhibition of topoisomerase II occurs (IC50) for each compound is determined from concentration-inhibition curves in a conventional manner.

T1 sequence (P11388 whole entry): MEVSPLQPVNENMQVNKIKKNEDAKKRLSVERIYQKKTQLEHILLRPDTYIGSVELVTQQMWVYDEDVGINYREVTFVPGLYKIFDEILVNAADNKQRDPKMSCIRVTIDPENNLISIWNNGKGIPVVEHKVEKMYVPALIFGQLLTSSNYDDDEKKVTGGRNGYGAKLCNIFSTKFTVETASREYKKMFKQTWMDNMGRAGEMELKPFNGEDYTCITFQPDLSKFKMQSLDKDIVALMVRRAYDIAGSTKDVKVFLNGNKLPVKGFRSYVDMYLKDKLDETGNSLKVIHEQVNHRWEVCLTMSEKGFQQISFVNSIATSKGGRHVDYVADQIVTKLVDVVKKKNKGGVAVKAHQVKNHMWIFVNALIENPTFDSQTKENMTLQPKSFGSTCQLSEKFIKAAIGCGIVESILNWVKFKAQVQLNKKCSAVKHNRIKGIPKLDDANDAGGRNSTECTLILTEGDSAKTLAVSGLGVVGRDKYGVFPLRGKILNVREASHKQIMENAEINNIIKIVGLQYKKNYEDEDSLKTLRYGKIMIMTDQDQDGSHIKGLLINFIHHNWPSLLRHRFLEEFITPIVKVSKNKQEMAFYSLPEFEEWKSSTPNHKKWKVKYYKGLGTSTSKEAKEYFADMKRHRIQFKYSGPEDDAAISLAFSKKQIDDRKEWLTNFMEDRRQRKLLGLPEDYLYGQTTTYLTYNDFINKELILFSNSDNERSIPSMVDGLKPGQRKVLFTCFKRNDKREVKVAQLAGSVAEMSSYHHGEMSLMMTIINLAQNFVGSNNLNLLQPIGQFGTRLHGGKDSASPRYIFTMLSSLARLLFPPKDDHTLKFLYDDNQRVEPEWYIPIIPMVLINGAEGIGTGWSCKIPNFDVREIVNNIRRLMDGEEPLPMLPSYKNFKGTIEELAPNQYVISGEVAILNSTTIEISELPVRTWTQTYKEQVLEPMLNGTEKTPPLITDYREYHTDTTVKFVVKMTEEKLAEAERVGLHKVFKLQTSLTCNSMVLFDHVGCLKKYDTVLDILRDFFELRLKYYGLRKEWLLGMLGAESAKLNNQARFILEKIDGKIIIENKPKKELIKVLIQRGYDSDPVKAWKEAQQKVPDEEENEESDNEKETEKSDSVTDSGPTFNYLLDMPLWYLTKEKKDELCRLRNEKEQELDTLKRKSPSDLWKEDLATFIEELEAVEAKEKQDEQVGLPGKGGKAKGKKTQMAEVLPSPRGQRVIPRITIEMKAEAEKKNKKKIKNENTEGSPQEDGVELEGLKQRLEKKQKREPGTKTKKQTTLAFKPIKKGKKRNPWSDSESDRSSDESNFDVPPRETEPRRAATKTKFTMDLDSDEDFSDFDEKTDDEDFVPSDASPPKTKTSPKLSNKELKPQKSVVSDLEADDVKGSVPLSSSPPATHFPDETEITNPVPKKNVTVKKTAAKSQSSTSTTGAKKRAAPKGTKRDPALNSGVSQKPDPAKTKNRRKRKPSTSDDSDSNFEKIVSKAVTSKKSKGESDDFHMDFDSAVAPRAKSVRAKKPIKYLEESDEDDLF

| SMILES | IC50 | inhibition at 10 µM |
| --- | --- | --- |
| CCc1nc2c(NC(C)(C)C)nc(Nc3ccc4oc(=O)ccc4c3)nc2[nH]1 [Example 35, 6-(6-tert-Butylamino-8-ethyl-9H-purin-2-ylamino)-chromen-2-one] | 2.8 µM | 65 to 80% |
| CC(C)(C)Nc1nc(Nc2ccc3ccccc3c2)nc2[nH]cnc12 [Example 15, N*6*-tert-Butyl-N*2*-naphthalen-2-yl-9H-purine-2,6-diamine] | 3.3 µM | 65 to 80% |
| c1nc2c(NC3C4CC5CC(C4)CC3C5)nc(Nc3ccc4ncsc4c3)nc2[nH]1 (stereo not shown) [Example 5, N*6*-Adamantan-2-yl-N*2*-benzothiazol-6-yl-9H-purine-2,6-diamine] | – | 50 to 65% |
| OC1CCC(Nc2nc(Nc3ccc4ncsc4c3)nc3[nH]cnc23)CC1 (stereo not shown) [Example 9, 4-[2-(Benzothiazol-6-ylamino)-9H-purin-6-ylamino]-cyclohexanol] | – | < 50% |
| CC(C)(C)Nc1nc(Nc2ccc3ncccc3c2)nc2[nH]cnc12 [Example 46, N*6*-tert-Butyl-N*2*-quinolin-6-yl-9H-purine-2,6-diamine] | – | 50 to 65% |
| c1cncc(N2CCN(c3nc(Nc4ccc5ncsc5c4)nc4[nH]cnc34)CC2)c1 [Example 59, Benzothiazol-6-yl-[6-(4-pyridin-3-yl-piperazin-1-yl)-9H-purin-2-yl]-amine] | – | < 50% |
| c1nc2c(NC3CC4CCC3C4)nc(Nc3ccc4ncsc4c3)nc2[nH]1 (stereo not shown) [Example 6, N*2*-Benzothiazol-6-yl-N*6*-bicyclo[2.2.1]hept-2-yl-9H-purine-2,6-diamine] | – | 50 to 65% |
| c1nc2c(NC3CCCCCCC3)nc(Nc3ccc4ncsc4c3)nc2[nH]1 [Example 7, N*2*-Benzothiazol-6-yl-N*6*-cyclooctyl-9H-purine-2,6-diamine] | – | 50 to 65% |
| CC(C)(C)Nc1nc(Nc2ccc3nc(C(C)(C)C)sc3c2)nc2[nH]cnc12 [Example 18, N*6*-tert-Butyl-N*2*-(2-tert-butyl-benzothiazol-6-yl)-9H-purine-2,6-diamine] | – | 65 to 80% |
| Cc1nc2ccc(Nc3nc(N4CCN(c5ccccn5)CC4)c4nc[nH]c4n3)cc2s1 [Example 63, (2-Methyl-benzothiazol-6-yl)-[6-(4-pyridin-2-yl-piperazin-1-yl)-9H-purin-2-yl]-amine] | – | < 50% |
| CCC(C)(C)Nc1nc(Nc2ccc3ncccc3c2)nc2[nH]cnc12 [Example 52, N*6*-(1,1-Dimethyl-propyl)-N*2*-quinolin-6-yl-9H-purine-2,6-diamine] | – | < 50% |
| CCC(C)(C)Nc1nc(Nc2ccc3nsnc3c2)nc2[nH]cnc12 [Example 53, N*2*-Benzo[1,2,5]thiadiazol-5-yl-N*6*-(1,1-dimethyl-propyl)-9H-purine-2,6-diamine] | – | < 50% |
| CC(C)(C)Nc1nc(Nc2ccc3ncsc3c2)nc2[nH]c(C3CCCC3)nc12 [Example 34, N*2*-Benzothiazol-6-yl-N*6*-tert-butyl-8-cyclopentyl-9H-purine-2,6-diamine] | – | < 50% |
| CNc1nc2c(NC(C)(C)C)nc(Nc3ccc4ccccc4c3)nc2[nH]1 [Example 44, N*6*-tert-Butyl-N*8*-methyl-N*2*-naphthalen-2-yl-9H-purine-2,6,8-triamine] | – | 65 to 80% |
| CC(C)(C)Nc1nc(Nc2ccc3[nH]ccc3c2)nc2[nH]cnc12 [Example 24, N*6*-tert-Butyl-N*2*-(1H-indol-5-yl)-9H-purine-2,6-diamine] | – | < 50% |
| Cc1nc2ccc(Nc3nc(NC(C)(C)C)c4nc[nH]c4n3)cc2s1 [Example 19, N*6*-tert-Butyl-N*2*-(2-methyl-benzothiazol-6-yl)-9H-purine-2,6-diamine] | – | 50 to 65% |

| SMILES | IC50 | inhibition at 10 µM |
| --- | --- | --- |
| CC(C)(C)Nc1nc(Nc2ccc3nsnc3c2)nc2[nH]cnc12 [Example 47, N*2*-Benzo[1,2,5]thiadiazol-5-yl-N*6*-tert-butyl-9H-purine-2,6-diamine] | – | < 50% |
| CCC(C)(C)Nc1nc(Nc2ccc3ncsc3c2)nc2[nH]cnc12 [Example 51, N*2*-Benzothiazol-6-yl-N*6*-(1,1-dimethyl-propyl)-9H-purine-2,6-diamine] | – | 50 to 65% |
| CCc1nc2c(NC(C)C(F)(F)F)nc(Nc3ccc4ncsc4c3)nc2[nH]1 (stereo not shown) [Example 28, N*2*-Benzothiazol-6-yl-8-ethyl-N*6*-(2,2,2-trifluoro-1-methyl-ethyl)-9H-purine-2,6-diamine] | – | 50 to 65% |
| c1ccc(N2CCN(c3nc(Nc4ccc5ncccc5c4)nc4[nH]cnc34)CC2)nc1 [Example 61, [6-(4-Pyridin-2-yl-piperazin-1-yl)-9H-purin-2-yl]-quinolin-6-yl-amine] | – | < 50% |
| CC(C)(C)Nc1nc(Nc2ccc3ccccc3c2)nc2[nH]c(N)nc12 [Example 43, N*6*-tert-Butyl-N*2*-naphthalen-2-yl-9H-purine-2,6,8-triamine] | – | 65 to 80% |
| CC(C)(C)Nc1nc(Nc2ccc3ncsc3c2)nc2[nH]c(C3CC3)nc12 [Example 41, N*2*-Benzothiazol-6-yl-N*6*-tert-butyl-8-cyclopropyl-9H-purine-2,6-diamine] | – | 65 to 80% |
| CC(C)c1nc2c(NC(C)(C)C)nc(Nc3ccc4ncsc4c3)nc2[nH]1 [Example 33, N*2*-Benzothiazol-6-yl-N*6*-tert-butyl-8-isopropyl-9H-purine-2,6-diamine] | – | < 50% |
| CC(C)(C)Nc1nc(Nc2ccc3ncsc3c2)nc2[nH]c(N)nc12 [Example 42, N*2*-Benzothiazol-6-yl-N*6*-tert-butyl-9H-purine-2,6,8-triamine] | – | 65 to 80% |
| Cc1nc2c(NC3CCCCCC3)nc(Nc3ccc4ncsc4c3)nc2[nH]1 [Example 26, N*2*-Benzothiazol-6-yl-N*6*-cycloheptyl-8-methyl-9H-purine-2,6-diamine] | – | < 50% |
| c1ccc(N2CCN(c3nc(Nc4ccc5ncsc5c4)nc4[nH]cnc34)CC2)nc1 [Example 60, Benzothiazol-6-yl-[6-(4-pyridin-2-yl-piperazin-1-yl)-9H-purin-2-yl]-amine] | – | < 50% |
| CC(C)(Cc1ccc(F)cc1)Nc1nc(Nc2ccc3ncsc3c2)nc2[nH]cnc12 [Example 55, N*2*-Benzothiazol-6-yl-N*6*-[2-(4-fluoro-phenyl)-1,1-dimethyl-ethyl]-9H-purine-2,6-diamine] | – | < 50% |
| CC(C)(C)Nc1nc(Nc2ccc(-c3nc4ccccc4s3)cc2)nc2[nH]cnc12 [Example 20, N*2*-(4-Benzothiazol-2-yl-phenyl)-N*6*-tert-butyl-9H-purine-2,6-diamine] | – | 65 to 80% |
| c1ccc(Nc2nc(Nc3ccc4ncccc4c3)nc3[nH]cnc23)cc1 [Example 12, N*6*-Phenyl-N*2*-quinolin-6-yl-9H-purine-2,6-diamine] | – | 50 to 65% |
| CCC(C)(C)Nc1nc(Nc2ccc3nc(C)sc3c2)nc2[nH]cnc12 [Example 54, N*6*-(1,1-Dimethyl-propyl)-N*2*-(2-methyl-benzothiazol-6-yl)-9H-purine-2,6-diamine] | – | < 50% |
| Cc1nc2c(NC(C)(C)C)nc(Nc3ccc4ccccc4c3)nc2[nH]1 [Example 72, N*6*-tert-Butyl-8-methyl-N*2*-naphthalen-2-yl-9H-purine-2,6-diamine] | – | < 50% |
| CC(C)(Cc1ccc(F)cc1)Nc1nc(Nc2ccc3nsnc3c2)nc2[nH]cnc12 [Example 57, N*2*-Benzo[1,2,5]thiadiazol-5-yl-N*6*-[2-(4-fluoro-phenyl)-1,1-dimethyl-ethyl]-9H-purine-2,6-diamine] | – | < 50% |
